Test results: paper PMC12073679, “Drug Repurposing to Inhibit Oncostatin M in Crohn’s Disease” (Molecules, 2025)

Target: T1, recombinant human oncostatin M (Homo sapiens, UniProt P13725)
T1 construct: gene OSM; labelled with RED-NHS 2nd generation dye for MST
T1 sequence (P13725 26-221): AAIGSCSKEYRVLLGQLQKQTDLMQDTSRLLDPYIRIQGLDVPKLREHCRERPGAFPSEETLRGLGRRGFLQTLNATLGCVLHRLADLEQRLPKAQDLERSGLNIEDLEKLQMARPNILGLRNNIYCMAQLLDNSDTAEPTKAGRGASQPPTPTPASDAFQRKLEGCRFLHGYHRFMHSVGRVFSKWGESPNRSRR
Assay: microscale thermophoresis
Format: binding

Kd: 11.4 ± 2.83 µM
SMILES: CC1(C)[C@@H]2CC[C@@]1(CS(=O)(=O)O)C(=O)/C2=C/c1ccc(/C=C2/C(=O)[C@]3(CS(=O)(=O)O)CC[C@H]2C3(C)C)cc1 [1a, Ecamsule]
